{"source": "paper PMC6597546", "about": "“Identification of a potent benzoxaborole drug candidate for treating cryptosporidiosis” (Nature Communications, 2019)", "key": {"[1]": {"test_system": "C. parvum DMC1 positive parasites", "test": "Asexual-to-sexual stage conversion assay (DMC1 expression)", "format": "cell-based, Cryptosporidium parvum", "method": "The invasion assay, DNA replication assay, asexual to sexual stage conversion, and time-kill curve assays were performed using fluorescence microscopy to enumerate parasites and host cell nuclei. Staining protocols are individually described for each assay. Unless noted otherwise, the details of image acquisition were as follows. An inverted Nikon Eclipse Ti2000 microscope with an automated stage and Perfect Focus was used with NIS-Elements Advanced Research software (Nikon, USA, version 4.30.01) to image the wells. The microscope was programmed to focus on the center of each well and then take a 3 × 3 composite image per well using a 20 × (0.45 NA) objective. Images were exported as .tiff files and parasites and host nuclei counted using a custom macro on ImageJ (National Institutes of Health, version 1.52a). Data were analyzed using Microsoft Excel and GraphPad Prism (version 6.01). […] Amphotericin B (Sigma, catalog# A2942) was added to the culture media at 0.1 to 0.5 µg per mL for the DMC1 dose response assays."}, "[2]": {"test_system": "C. parvum (University of Arizona Iowa isolate)", "format": "in vivo, C57BL/6 IFN-γ−/− mice", "method": "Interferon gamma (IFN-γ) knockout mice were used to model acute Cryptosporidium infection. All IFN-γ knockout mouse studies were performed in compliance with animal care guidelines and were approved by the Explora BioLabs (San Diego, CA) Institutional Animal Care and Use Committee. Four-week-old female C57BL/6 IFN-γ^−/− mice with normal flora were purchased from The Jackson laboratory and acclimated for 3 days prior to infection by oral gavage with ∼10^6 C. parvum Iowa isolate oocysts (Sterling Laboratory, University of Arizona) suspended in sterile distilled water. At the indicated times following infection, mice were treated with compound vehicle alone, clofazimine (positive control), or once daily AN7973 at the indicated doses. Fecal parasite shedding was measured by isolating oocysts using sucrose gradient centrifugation. Sheather’s sucrose solution was freshly prepared by dissolving 156.25 g sucrose and 2.5 mL phenol in 100 mL water. Two sucrose solutions were prepared: (A) specific gravity of 1.103 (33% Sheather’s and 0.1% Tween 80 in PBS) and (B) specific gravity of 1.064 (20% Sheather’s and 0.1% Tween 80 in PBS). In a 2 mL microfuge tube, a gradient was prepared by laying 0.75 mL of solution A, then carefully laying 0.75 mL of solution B, slowly as to prevent mixing of the two layers. Fecal pellets were removed from storage, and homogenized by vortexing and pipetting. 0.2 mL fecal homogenate was overlaid on top of gradient in each microfuge tube. Oocysts were floated from feces by centrifugation at 1000 × g for 20 min and collected with a pipet tip from the 1.064/1.103 specific gravity interface between solutions A and B. Oocysts were rinsed once in cold PBS, pelleted by centrifugation at 15,000 × g for 10 min, and resuspended in PBS. Isolated oocysts were then stained with a fluorescein isothiocyanate-conjugated mouse anti-Cryptosporidium antibody (Bio-Rad catalog# 2402-3007 F; 0.25 µg per sample) and quantified using a Guava EasyCyte flow cytometer and CytoSoft data acquisition software (version 5.3; Guava Technologies, Inc.). Oocysts per milliliter of sample were normalized to counts per milligram of feces."}, "CYP1A2": {"target": "T1, CYP1A2 (Homo sapiens, UniProt P05177)", "T1 sequence (P05177 1-516)": "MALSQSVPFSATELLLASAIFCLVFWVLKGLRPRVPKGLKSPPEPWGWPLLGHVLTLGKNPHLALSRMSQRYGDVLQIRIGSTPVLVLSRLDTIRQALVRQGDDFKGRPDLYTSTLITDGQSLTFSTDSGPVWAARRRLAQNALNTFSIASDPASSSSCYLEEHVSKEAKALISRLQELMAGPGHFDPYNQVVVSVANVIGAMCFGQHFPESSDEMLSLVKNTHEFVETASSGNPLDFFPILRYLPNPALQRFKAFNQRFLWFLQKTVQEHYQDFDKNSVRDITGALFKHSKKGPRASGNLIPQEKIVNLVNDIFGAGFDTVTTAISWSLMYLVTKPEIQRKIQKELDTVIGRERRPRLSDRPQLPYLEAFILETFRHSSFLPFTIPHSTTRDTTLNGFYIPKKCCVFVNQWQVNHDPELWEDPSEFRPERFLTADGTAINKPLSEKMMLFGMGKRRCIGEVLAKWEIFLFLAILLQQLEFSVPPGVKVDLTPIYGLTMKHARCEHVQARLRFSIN", "test": "CYP450 inhibition 1A2", "format": "in vitro ADME"}, "CYP2D6": {"target": "CYP2D6 (Homo sapiens, UniProt P10635)", "sequence (P10635 whole entry)": "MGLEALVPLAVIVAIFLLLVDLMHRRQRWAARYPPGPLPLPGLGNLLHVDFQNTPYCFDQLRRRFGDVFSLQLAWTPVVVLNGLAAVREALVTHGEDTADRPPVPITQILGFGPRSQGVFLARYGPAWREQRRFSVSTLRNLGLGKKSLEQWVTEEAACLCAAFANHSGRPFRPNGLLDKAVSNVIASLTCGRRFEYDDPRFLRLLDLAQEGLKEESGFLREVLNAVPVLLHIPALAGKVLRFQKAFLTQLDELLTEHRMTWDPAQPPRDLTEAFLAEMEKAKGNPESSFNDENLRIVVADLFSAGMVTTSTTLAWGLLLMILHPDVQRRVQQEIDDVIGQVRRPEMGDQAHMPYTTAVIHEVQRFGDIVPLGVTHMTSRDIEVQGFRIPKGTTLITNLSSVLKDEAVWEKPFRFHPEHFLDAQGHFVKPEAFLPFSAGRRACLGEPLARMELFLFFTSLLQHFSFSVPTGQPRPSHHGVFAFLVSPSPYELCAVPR", "test": "CYP450 inhibition 2D6", "format": "in vitro ADME"}, "MDR1 (P-gp)": {"test_system": "MDR1 (P-gp)", "test": "in vitro", "details": "dog"}}, "note": "“And” between values parts separate entries of the source, which are not always exact repeats. Identical values can stand only once. Like-named read-outs stand apart in the source and are kept apart here.", "data": [{"smiles": "CC1(C)OB(O)c2cc(NC(=O)c3ccc(-n4cccn4)cc3Cl)ccc21", "note": "[AN7973]", "values": [{"measurement": "EC50", "setting": "[1]; Cryptosporidium parvum, BGF Iowa isolate, HCT-8, 10% FBS, DMC1, interval in parentheses, read-out: EC50 asexual-to-sexual conversion (48–72 h)", "value": 480, "unit": "nM"}, {"measurement": "% inhibition, 48 - 72 h DMC1 (asexual to sexual conversion)", "setting": "[1]; log [AN7973] (M) 0.10", "value": 95.75, "unit": "%"}, {"measurement": "% inhibition, 48 - 72 h DMC1 (asexual to sexual conversion)", "setting": "[1]; log [AN7973] (M) 0.28", "value": "95.64% and 78.65%"}, {"measurement": "% inhibition, 48 - 72 h DMC1 (asexual to sexual conversion)", "setting": "[1]; log [AN7973] (M) 0.40", "value": 95.48, "unit": "%"}, {"measurement": "% inhibition, 48 - 72 h DMC1 (asexual to sexual conversion)", "setting": "[1]; log [AN7973] (M) -0.20", "value": "85.62% and 65.23% and 46.69%"}, {"measurement": "% inhibition, 48 - 72 h DMC1 (asexual to sexual conversion)", "setting": "[1]; log [AN7973] (M) -0.68", "value": "-48.74% and -54.94% and -50.77%"}, {"measurement": "% inhibition, 48 - 72 h DMC1 (asexual to sexual conversion)", "setting": "[1]; log [AN7973] (M) -0.93", "value": -98.53, "unit": "%"}, {"measurement": "% inhibition, 48 - 72 h DMC1 (asexual to sexual conversion)", "setting": "[1]; log [AN7973] (M) -1.23", "value": -40.27, "unit": "%"}, {"measurement": "% inhibition, 48 - 72 h DMC1 (asexual to sexual conversion)", "setting": "[1]; log [AN7973] (M) -1.53", "value": -58.48, "unit": "%"}, {"measurement": "% inhibition, 48 - 72 h DMC1 (asexual to sexual conversion)", "setting": "[1]; log [AN7973] (M) -2.01", "value": -35.29, "unit": "%"}, {"measurement": "% inhibition, 48 - 72 h DMC1 (asexual to sexual conversion)", "setting": "[1]; log [AN7973] (M) -2.48", "value": -28.64, "unit": "%"}, {"measurement": "fecal oocyst shedding, individual mice", "setting": "[2]; 10 mg/kg QD from day 4, day p.i. 8", "value": "5.45 and 13 (2×) and 10"}, {"measurement": "fecal oocyst shedding, individual mice", "setting": "[2]; 10 mg/kg QD from day 4, day p.i. 14", "value": "11 and 15 (2×) and 21"}, {"measurement": "fecal oocyst shedding, individual mice", "setting": "[2]; 25 mg/kg QD from day 4, day p.i. 7", "value": "3 (2×) and 6 and 9"}, {"measurement": "efficacy in IFN-γ KO mouse", "setting": "[2]; 5, 10, 25 mg per kg once daily oral, efficacy at 10 mg per kg, maximal efficacy similar to clofazimine", "value": "dose-dependent efficacy"}, {"measurement": "adverse effects in IFN-γ KO mice", "setting": "[2]; mouse, in vivo", "value": "no adverse effects"}, {"measurement": "inhibition at 10 µM", "setting": "CYP1A2", "value": 1, "unit": "%"}, {"measurement": "inhibition at 10 µM", "setting": "CYP2D6", "value": 0, "unit": "%"}, {"measurement": "Papp", "setting": "MDR1 (P-gp); MDCK-MDR1, MDCK-MDR1 Papp", "value": 56.5, "unit": "×10⁻⁶ cm/s"}, {"measurement": "Papp", "setting": "MDR1 (P-gp); MDCK-MDR1, MDCK-MDR1 Papp + Pgp inhibitor", "value": 60.6, "unit": "×10⁻⁶ cm/s"}]}]}
